Data published in patent US10870102B2, “Radical generating catalyst, method for producing radical, method for producing oxidation reaction product, drug, and drug for agriculture and livestock” (ACENET INC., priority 2015, dated 2020).
Values joined by “and” are separate entries in the source; they are usually repeats but may differ in a detail not shown here. Equal entries are not always repeated. Where two headings read alike, the source gives them in different places.

Legend:
[1] = Lewis acidity: rate constant of reaction between CoTPP and oxygen in the presence of a Lewis acid; format: physicochemical
Escherichia coli MV1184 = experiment: MIC/MBC determination, microplate; format: cell-based; settings: E. coli; 37° C., 24 hours
Staphylococcus aureus = experiment: MIC/MBC determination, microplate; format: cell-based; settings: S. aureus; 37° C., 24 hours

Compound: CCCC[N+](CCCC)(CCCC)CCCC.F[P-](F)(F)(F)(F)F [tetrabutylammonium hexafluorophosphate]
- kcat [1]: >0.1 M^−2 s^−1

Compound: sodium chlorite [Comp. Ex. 7]
- MIC (Escherichia coli MV1184): 25< ppm

Compound: sodium chlorite [compound 6]
- MIC (Staphylococcus aureus): 40 ppm
- MBC (Escherichia coli MV1184): 50 ppm
- MIC (Escherichia coli MV1184): 30 ppm

Compound: CC(C)(C)CC(C)(C)c1ccc(OCCOCC[N+](C)(C)Cc2ccccc2)cc1.[Cl-] [benzetonium chloride, benzethonium chloride]
- kcat [1]: 0.24 and 0.24 M^−2 s^−1

Compound: benzalkonium chloride
- kcat ([1]; rate constant of reaction between CoTPP and oxygen in the presence of a Lewis acid, MeCN, saturated O2, room temperature): 0.18 M^−2 s^−1
